The record followed here is US20220257633A1, “METHOD OF TREATING AGE-RELATED MACULAR DEGENERATION” (THE PROVOST, FELLOWS, FOUNDATION SCHOLARS, & THE O, priority 2021, published 2022).

This assay has as its system CD45+CD66b−CD14+CD16+ monocytes. The experiment in a line: Surface CD86 on monocytes by flow cytometry. Conditions: PBMCs treated with MCP-1 for 24 h; CD86 MFI. It counts as cell-based, human. How it is done: PBMCs were labelled for the investigation of monocytes with the following fluorochrome-labelled antibodies: anti-CD16 (3G8) anti-CD86 (FM95) anti-CD45 (2D1); anti-CD66b (G10F5); CD14 (Tuk4); CD80 (2D10); (Biolegend or Miltenyi). Each staining well contained 4×10^5 cells; cells were stained with LIVE/DEAD Aqua (Molecular Probes) followed by staining for 20 min on ice, washed, and analyzed by flow cytometry immediately. Flow cytometry was carried out on a BD LSR Fortessa cell analyzer and analyzed using FlowJo software (Tree Star).

Turning to “MCP-1: chemokine monocyte chemoattractant protein CCL2/MCP-1”, the “increase of CD86 membrane expression” value is listed as around 1.4 fold.
